The values that follow come from US7312330B2, “Bicycloheteroarylamine compounds as ion channel ligands and uses thereof” (Renovis, Inc., priority 2003, dated 2007).

Data set [1] in a line: Pharmacokinetic profile after intravenous and oral administration. Type of data set: in vivo. The note with it: rat, IV 1 mg/kg, oral 5 mg/kg; for Cmax / Tmax / Vd / bioavailability: male, Sprague-Dawley, plasma. The procedure: The pharmacokinetic profile of Compound 1 was evaluated following intravenous and oral administration in rats. Sprague-Dawley male rats obtained from Charles River, San Diego, Calif. were acclimated for 24 hours.
Compounds of this invention were formulated at a concentration of 0.5 mg/mL for IV administration at a 1 mg/kg dose and 1 mg/mL for oral administration at a 5 mg/kg dose. All animals were weighed before dosing. The body weight was used to calculate the actual dose for each animal. The intravenous dose was administered through the jugular vein catheter in less than 1 minute. The oral dose volume was 1.5 mL for all PO rats administered through oral lavage.
For IV dosing, blood samples were collected using a pre-heparinized syringe via the carotid artery catheter before dosing and at t=2, 5, 15, 30, 60, 120, 180, 360, and 480 minutes post dosing. For PO dosing, blood samples were collected using a pre-heparinized syringe via the carotid artery catheter before dosing and at t=5, 15, 30, 60, 120, 180, 360, and 480 minutes post dosing. 250 uL of blood was obtained at each time point from each animal. Equal volumes of 0.9% normal saline were replaced to prevent dehydration. The whole blood samples were maintained on ice until centrifugation. Blood samples were centrifuged at 14,000 rpm for 10 minutes at 4° C., and the upper plasma layer was transferred into a clean vial and store at −80° C.

The next data set addresses T1, HsVR1 (Homo sapiens, UniProt Q8NER1).
T1 construct: expressed in transfected cells; host or cells: Xenopus oocytes injected with HsVR1 RNA
Put plainly: Two-electrode voltage clamp recording of capsaicin induced VR1 current in Xenopus oocytes. Format: cell-based. As to conditions: 250 nM capsaicin induced current; Xenopus oocytes injected with HsVR1 RNA; read-out: EPHYS IC50. Here is the method:
Xenopus ovaries obtained from NASCO were isolated by enzymatic dissociation using collagenase (Worthington, 2 mg/ml). Oocytes were then individually injected with HsVR1 RNA (0.5 μg/μl). Injected oocytes are stored in standard oocyte incubation solution, ND96, containing 96 mM NaCl, 2 mM KCl, 1 mM MgCl2, 0.3 mM CaCl2 and 50 µg/ml Gentamicin at 16° C. Capsaicin induced VR1 current is observed in oocytes 4-5 days after injection. Eight oocytes are placed in the recording chambers. Each oocyte is impaled by 2 glass electrodes having resistances of 0.5 to 1 MOhm when filled with a 3 M KCl solution. Electrode advancement and oocyte impalement are under software control (OpusXpress 1.1, Axon Instruments). VR1 expression in the oocytes is verified using 250 nM capsaicin. Test solution delivery to the oocytes during the experiment is also under software control. The solutions are prepared in 96 well plates and robotically pipetted into the oocyte recording chambers by an 8 channel pipetter. Oocytes are exposed to several 250 μl applications of 250 nM capsaicin until a stable current amplitude is obtained with each application. A set of 96 well plates containing the test solutions is prepared so that the sequence of solution application to the oocyte is as follows: 250 μls of 250 nM capsaicin is followed by a several minute wash with standard oocyte saline. 1 ml of the test compound is then added at a particular test concentration, followed immediately by 250 μl of the compound at the same concentration plus 250 nM capsaicin. The capsaicin induced VR1 current is recorded in the presence and absence of test compound for each concentration. The standard test concentrations range from 0.3 to 2000 nM. Quantitative measurement of VR1 current block was carried out by calculating the area under the curve described by the inward current. The resulting numbers for capsaicin induced currents in the presence of increasing compound concentration are normalized to the maximum current obtained. These points are then plotted on a logarithmic scale and fitted by a Hill function. The IC50 values for each compound tested were then calculated from the resulting Hill fit. All compounds that inhibited capsaicin induced current greater than 50% were considered positives.

The target in the next data set is hVR1 (Homo sapiens, UniProt Q8NER1). Put plainly: Calcium imaging assay (Fura2) of VR1 antagonists, proton stimulation. Format: cell-based. As to conditions: HEK 293 cells expressing hVR1; for % Inhibition @ 1 μM: calcium ion influx induced by proton stimulation (pH 5.7); for IC50: calcium ion influx induced by proton stimulation. The gist of the method: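 HEK293 cells expressing capsaicin-insensitive hVR1 were loaded with Fura2 (5 μg/mL, 37 °C, 40 min). Compound was added, then compound plus acid agonist (10 mM citric acid, pH 5.7), with the 340/380 nm ratio read every 4 s for 3 min. Peak-minus-baseline response gave % inhibition and an ID50 from dose-response curves.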
hVR1, sequence (Q8NER1 whole entry): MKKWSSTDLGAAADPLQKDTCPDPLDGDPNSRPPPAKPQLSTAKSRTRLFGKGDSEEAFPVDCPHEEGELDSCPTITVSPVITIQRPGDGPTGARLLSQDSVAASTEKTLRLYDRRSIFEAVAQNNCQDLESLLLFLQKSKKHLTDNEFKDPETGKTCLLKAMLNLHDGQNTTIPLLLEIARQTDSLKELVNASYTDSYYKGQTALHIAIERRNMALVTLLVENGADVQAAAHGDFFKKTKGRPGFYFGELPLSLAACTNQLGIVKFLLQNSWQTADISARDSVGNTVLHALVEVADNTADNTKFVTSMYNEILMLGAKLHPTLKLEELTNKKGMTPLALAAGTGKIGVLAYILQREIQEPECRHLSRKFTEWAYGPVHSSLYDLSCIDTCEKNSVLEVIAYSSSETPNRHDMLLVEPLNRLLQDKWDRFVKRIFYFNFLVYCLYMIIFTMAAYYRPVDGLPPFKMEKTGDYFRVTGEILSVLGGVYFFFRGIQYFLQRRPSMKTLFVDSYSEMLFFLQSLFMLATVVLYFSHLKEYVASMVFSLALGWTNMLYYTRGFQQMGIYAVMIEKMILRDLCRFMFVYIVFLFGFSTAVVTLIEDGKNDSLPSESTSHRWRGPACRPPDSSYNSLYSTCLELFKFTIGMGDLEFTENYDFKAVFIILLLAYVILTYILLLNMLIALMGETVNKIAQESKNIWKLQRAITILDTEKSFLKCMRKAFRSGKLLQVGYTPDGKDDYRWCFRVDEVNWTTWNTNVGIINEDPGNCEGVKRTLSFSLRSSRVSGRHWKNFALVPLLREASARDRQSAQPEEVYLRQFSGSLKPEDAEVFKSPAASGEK

T1 sequence (Q8NER1 whole entry): as above

Turning to `CS(=O)(=O)c1cccnc1N1CCc2c(ncnc2Nc2ccc(C(F)(F)F)cc2)C1` [Example 9, [7-(3-Methanesulfonyl-pyridin-2-yl)-5,6,7,8-tetrahydro-pyrido[3,4-d]pyrimidin-4-yl]-(4-trifluoromethyl-phenyl)-amine], in data set [1], the Cmax amounted to 156 ng/mL, the time of peak concentration (Tmax) was 1.67 h, the Vd was found to be 13 L/kg and the bioavailability was 47.9%. Further, in data set [1], the “Cls (L/hrKg)” value stood at 1.99 L/hrKg and the “T/2” value was determined as 4.37 h. In addition, at HsVR1, the IC50 was 101 to 500 nM. Further, on hVR1, the “% Inhibition @ 1 μM” value is “++++ (compound exhibited 76% or greater inhibition of calcium ion influx induced by proton stimulation)” and the half-inhibitory concentration (IC50) was in the range of 101 to 500 nM.
On to `FC(F)(F)c1ccc(Nc2ncnc3c2CCN(c2ncccc2C(F)(F)F)C3)cc1` [Example 12, (4-Trifluoromethyl-phenyl)-[7-(3-trifluoromethyl-pyridin-2-yl)-5,6,7,8-tetrahydro-pyrido[3,4-d]pyrimidin-4-yl]-amine], for which, at HsVR1, the half-maximal inhibitory concentration (IC50) is under 100 nM. For the same molecule, on hVR1, the “% Inhibition @ 1 μM” value is reported as “++++ (compound exhibited 76% or greater inhibition of calcium ion influx induced by proton stimulation)” and the IC50 fell in the range of 101 to 500 nM.
The like results for `CN(C)c1nc2c(c(Nc3ccc(C(F)(F)F)cc3)n1)CCN(c1ncccc1Cl)C2` [Example 34, 7-(3-Chloropyridin-2-yl)-N^4-(4-(trifluoromethyl)phenyl)-5,6,7,8-tetrahydro-N^2N^2-dimethylpyrido[3,4-d]pyrimidine-2,4-diamine] were, in that order, 501 to 1000 nM, “+ (compound exhibited 0-25% inhibition of calcium ion influx induced by proton stimulation)” and 101 to 500 nM.
Regarding `FC(F)(F)c1ccc(Nc2ncnc3c2CCN(c2ncccc2Cl)C3)cc1` [Example 1, 7-(3-Chloropyridin-2-yl)-N-(4-(trifluoromethyl)phenyl)-5,6,7,8-tetrahydropyrido[3,4-d]pyrimidin-4-amine], in data set [1], the peak concentration (Cmax) amounted to 1380 ng/mL, the Tmax came out at 1.01 h, the Vd stood at 1.28 L/kg and the bioavailability amounted to 37%. In data set [1], the “Cls (L/hrKg)” value came to 0.34 L/hrKg and the “T/2” value turned out to be 2.52 h. Moreover, the concentration for half-maximal inhibition (IC50) at HsVR1 was in the range of 101 to 500 nM. For the same molecule, at hVR1, the “% Inhibition @ 1 μM” value is reported as “++++ (compound exhibited 76% or greater inhibition of calcium ion influx induced by proton stimulation)” and the IC50 fell in the range of 101 to 500 nM.
For `O=S(=O)(c1ccc(Nc2ncnc3c2CCN(c2ncccc2Cl)C3)cc1)C(F)(F)F` [Example 22, 7-(3-Chloropyridin-2-yl)-N-(4-(trifluoromethylsulphonyl)phenyl)-5,6,7,8-tetrahydropyrido[3,4-d]pyrimidin-4-amine], the half-maximal inhibitory concentration (IC50) at HsVR1 is under 100 nM. Besides, on hVR1, the “% Inhibition @ 1 μM” value is listed as “++++ (compound exhibited 76% or greater inhibition of calcium ion influx induced by proton stimulation)” and the IC50 was under 100 nM.
With `CS(=O)(=O)c1cccnc1N1CCc2c(ncnc2Nc2ccc(S(=O)(=O)C(F)(F)F)cc2)C1` [Example 23, 7-(3-Methanesulphonylpyridin-2-yl)-N-(4-(trifluoromethylsulphonyl)phenyl)-5,6,7,8-tetrahydropyrido[3,4-d]pyrimidin-4-amine], on HsVR1, the IC50 was in the range of 101 to 500 nM. In addition, at hVR1, the “% Inhibition @ 1 μM” value is “++++ (compound exhibited 76% or greater inhibition of calcium ion influx induced by proton stimulation)” and the IC50 lay in the range of 101 to 500 nM.
For the molecule `Cc1cccc(N2CCc3c(ncnc3Nc3ccc(C(F)(F)F)cc3)C2)c1` [Example 46, 7-(m-Tolyl)-N-(4-(trifluoromethyl)phenyl)-5,6,7,8-tetrahydropyrido[3,4-d]pyrimidin-4-amine], the IC50 on HsVR1 was in the range of 501 to 1000 nM. For the same molecule, at hVR1, the “% Inhibition @ 1 μM” value is given as “+ (compound exhibited 0-25% inhibition of calcium ion influx induced by proton stimulation)” and the concentration for half-maximal inhibition (IC50) was over 1000 nM.
The matching figures for `Cc1ccccc1N1CCc2c(ncnc2Nc2ccc(C(F)(F)F)cc2)C1` [Example 45, 7-(o-Tolyl)-N-(4-(trifluoromethyl)phenyl)-5,6,7,8-tetrahydropyrido[3,4-d]pyrimidin-4-amine]: under 100 nM, “++++ (compound exhibited 76% or greater inhibition of calcium ion influx induced by proton stimulation)” and under 100 nM.
Take `COCc1nc2c(c(Nc3ccc(C(F)(F)F)cc3)n1)CCN(c1ncccc1Cl)C2` [Example 35, 7-(3-Chloropyridin-2-yl)-N-(4-(trifluoromethyl)phenyl)-5,6,7,8-tetrahydro-2-(methoxymethyl)pyrido[3,4-d]pyrimidin-4-amine]: the concentration for half-maximal inhibition (IC50) on HsVR1 fell in the range of 101 to 500 nM. Further, the “% Inhibition @ 1 μM” value at hVR1 was “++++ (compound exhibited 76% or greater inhibition of calcium ion influx induced by proton stimulation)”.
As for `N#Cc1nc2c(c(Nc3ccc(C(F)(F)F)cc3)n1)CCN(c1ncccc1Cl)C2` [Example 37, 4-(4-(Trifluoromethyl)phenylamino)-7-(3-chloropyridin-2-yl)-5,6,7,8-tetrahydropyrido[3,4-d]pyrimidine-2-carbonitrile], in data set [1], the peak concentration (Cmax) turned out to be 49.4 ng/mL, the Tmax was 3.33 h, the Vd came out at 12.4 L/kg and the bioavailability stood at 17.9%. In data set [1], the “Cls (L/hrKg)” value is 4.02 L/hrKg and the “T/2” value was 2.15 h. Further, the half-inhibitory concentration (IC50) on HsVR1 is 101 to 500 nM. In addition, the “% Inhibition @ 1 μM” value on hVR1 is “++++ (compound exhibited 76% or greater inhibition of calcium ion influx induced by proton stimulation)”.
